The values that follow come from patent US20260256789A1, “METHODS FOR TREATMENT OF CANCER” (Frontier Medicines Corporation, priority 2022, published 2026).

pIC50: −log10 of the molar value.

T1 sequence (P01116 1-169 isoform P01116-2 G12C/C51S/C80L/C118S): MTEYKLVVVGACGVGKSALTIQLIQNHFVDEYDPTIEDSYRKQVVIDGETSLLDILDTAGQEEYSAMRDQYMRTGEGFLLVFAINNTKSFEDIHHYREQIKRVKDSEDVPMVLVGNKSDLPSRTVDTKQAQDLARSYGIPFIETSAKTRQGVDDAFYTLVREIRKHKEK

This experiment has as its target T1, KRAS G12C (GMPPNP-loaded) and cRAF Ras-binding domain (Homo sapiens, UniProt P01116, C118S/C51S/C80L/G12C).
T1 construct: truncated version comprising amino acids 1-169
Briefly: Inhibition of KRAS G12C and cRAF binding (AlphaScreen). As to conditions: KRAS G12C preloaded with GTP analogue GMPPNP, 2 hours preincubation. Put shortly: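 AlphaScreen used biotin-AviTag KRAS G12C (Cys-light, aa 1-169; 0.5 nM), GMPPNP-loaded, preincubated 2 h with compound (top 50 μM, 1:3, 10 points, 2% DMSO) in pH 7.4 Hepes buffer with 10 μM GMPPNP. GST-cRAF RBD (aa 50-131; 0.75 nM) plus beads were then added for 60-90 min at room temperature, and IC50 came from a 4-parameter fit.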
In general terms: In Alpha technology, singlet oxygen from a donor bead excites a nearby acceptor bead.
In general, pIC50 refers to the negative decadic logarithm of the IC50, by convention in mol/L. A high value points to a small IC50. `CN(c1nc(OCC23CCCN2CCC3)nc2c(F)c(-c3nc(N)cc4cccc(F)c34)ncc12)[C@@H]1CCN(C#N)C1` [Example 70, (R)-3-((7-(3-amino-8-fluoroisoquinolin-1-yl)-8-fluoro-2-((hexahydro-1H-pyrrolizin-7a-yl)methoxy)pyrido[4,3-d]pyrimidin-4-yl)(methyl)amino)pyrrolidine-1-carbonitrile]: the negative-log IC50 (pIC50) is 6.30 to 7.00.
In the case of `Cc1cc(N)nc(-c2ncc3c(N(C)[C@@H]4CCN(C(=O)/C=C/c5nc(C(C)C)no5)C4)nc(OC[C@@]45CCCN4C[C@H](F)C5)nc3c2F)c1C(F)(F)F` [Example 71, (E)-1-((R)-3-((7-(6-amino-4-methyl-3-(trifluoromethyl)pyridin-2-yl)-8-fluoro-2-(((2R,7aS)-2-fluorotetrahydro-1H-pyrrolizin-7a(5H)-yl)methoxy)pyrido[4,3-d]pyrimidin-4-yl)(methyl)amino)pyrrolidin-1-yl)-3-(3-isopropyl-1,2,4-oxadiazol-5-yl)prop-2-en-1-one], the pIC50 was more than 8.00.
In the case of `C=CC(=O)N1CC[C@@H](N(C)c2nc(OC[C@@]34CCCN3C[C@H](F)C4)nc3c(F)c(-c4nc(N)cc(C)c4C(F)(F)F)ncc23)C1` [Example 72, 1-((R)-3-((7-(6-amino-4-methyl-3-(trifluoromethyl)pyridin-2-yl)-8-fluoro-2-(((2R,7aS)-2-fluorotetrahydro-1H-pyrrolizin-7a(5H)-yl)methoxy)pyrido[4,3-d]pyrimidin-4-yl)(methyl)amino)pyrrolidin-1-yl)prop-2-en-1-one] it was 7.00 to 8.00; in that of `C=CC(=O)N1CC(CN(C)c2nc(OC[C@@]34CCCN3C[C@H](F)C4)nc3c(F)c(-c4nc(N)cc5cccc(Cl)c45)ncc23)C1` [Example 73, 1-(3-(((7-(3-amino-8-chloroisoquinolin-1-yl)-8-fluoro-2-(((2R,7aS)-2-fluorohexahydro-1H-pyrrolizin-7a-yl)methoxy)pyrido[4,3-d]pyrimidin-4-yl)(methyl)amino)methyl)azetidin-1-yl)prop-2-en-1-one], 7.00 to 8.00.
The molecule `C=CC(=O)N1CC[C@@H](N(C)c2nc(OC[C@@]34CCCN3C[C@H](F)C4)nc3c(F)c(-c4nc(N)cc5cccc(Cl)c45)ncc23)C1` [Example 74, 1-((R)-3-((7-(3-amino-8-chloroisoquinolin-1-yl)-8-fluoro-2-(((2R,7aS)-2-fluorohexahydro-1H-pyrrolizin-7a-yl)methoxy)pyrido[4,3-d]pyrimidin-4-yl)(methyl)amino)pyrrolidin-1-yl)prop-2-en-1-one] gave a pIC50 of 7.00 to 8.00.
In the case of `C=CC(=O)N1CC[C@@H](N(C)c2nc(OCC34CCCN3CCC4)nc3c(F)c(-c4nc(N)cc5cccc(F)c45)ncc23)C1` [Example 75, (R)-1-(3-((7-(3-amino-8-fluoroisoquinolin-1-yl)-8-fluoro-2-((hexahydro-1H-pyrrolizin-7a-yl)methoxy)pyrido[4,3-d]pyrimidin-4-yl)(methyl)amino)pyrrolidin-1-yl)prop-2-en-1-one] it was 6.30 to 7.00.
In the case of `C=CC(=O)N1CC[C@@H](N(C)c2nc(OC[C@@]34CCCN3C[C@H](F)C4)nc3c(F)c(-c4nc(N)cc5cccc(F)c45)ncc23)C1` [Example 76, 1-((R)-3-((7-(3-amino-8-fluoroisoquinolin-1-yl)-8-fluoro-2-(((2R,7aS)-2-fluorohexahydro-1H-pyrrolizin-7a-yl)methoxy)pyrido[4,3-d]pyrimidin-4-yl)(methyl)amino)pyrrolidin-1-yl)prop-2-en-1-one] it was 7.00 to 8.00; in that of `C=CC(=O)N1CC[C@@H](N(C)c2nc(OCC34CCCN3CCC4)nc3c(F)c(-c4nc(N)cc(C)c4C(F)(F)F)ncc23)C1` [Example 79, (R)-1-(3-((7-(6-amino-4-methyl-3-(trifluoromethyl)pyridin-2-yl)-8-fluoro-2-((tetrahydro-1H-pyrrolizin-7a(5H)-yl)methoxy)pyrido[4,3-d]pyrimidin-4-yl)(methyl)amino)pyrrolidin-1-yl)prop-2-en-1-one], 7.00 to 8.00.
In the case of `CN(CC1CN(C(=O)/C=C/CN2CCOCC2)C1)c1nc(OC[C@@]23CCCN2C[C@H](F)C3)nc2c(F)c(-c3nc(N)cc4cccc(F)c34)ncc12` [Example 80, (E)-1-(3-(((7-(3-amino-8-fluoroisoquinolin-1-yl)-8-fluoro-2-(((2R,7aS)-2-fluorotetrahydro-1H-pyrrolizin-7a(5H)-yl)methoxy)pyrido[4,3-d]pyrimidin-4-yl)(methyl)amino)methyl)azetidin-1-yl)-4-morpholinobut-2-en-1-one] it was not above 6.30; in that of `Cc1noc(/C=C/C(=O)N2CC[C@@H](N(C)c3nc(OC[C@@]45CCCN4C[C@H](F)C5)nc4c3C[C@H](C)[C@@H](c3nc(N)cc(C)c3C(F)(F)F)C4)C2)n1` [Example 81, (E)-1-((R)-3-(((6S,7S)-7-(6-amino-4-methyl-3-(trifluoromethyl)pyridin-2-yl)-2-(((2R,7aS)-2-fluorotetrahydro-1H-pyrrolizin-7a(5H)-yl)methoxy)-6-methyl-5,6,7,8-tetrahydroquinazolin-4-yl)(methyl)amino)pyrrolidin-1-yl)-3-(3-methyl-1,2,4-oxadiazol-5-yl)prop-2-en-1-one], 6.30 to 7.00.
In the case of `Cc1cc(N)nc(-c2ncc3c(N(C)[C@@H]4CCN(C(=O)/C=C/[C@@H]5CCN5C)C4)nc(OC[C@@]45CCCN4C[C@H](F)C5)nc3c2F)c1C(F)(F)F` [Example 83], the pIC50 is more than 8.00.
In the case of `CN(CC1CN(C(=O)/C=C/CN2CCOCC2)C1)c1nc(OC[C@@]23CCCN2C[C@H](F)C3)nc2c(F)c(-c3nc(N)cc4cccc(Cl)c34)ncc12` [Example 84, (E)-1-(3-(((7-(3-amino-8-chloroisoquinolin-1-yl)-8-fluoro-2-(((2R,7aS)-2-fluorotetrahydro-1H-pyrrolizin-7a(5H)-yl)methoxy)pyrido[4,3-d]pyrimidin-4-yl)(methyl)amino)methyl)azetidin-1-yl)-4-morpholinobut-2-en-1-one] it was 7.00 to 8.00.
Molecule `Cc1cc(N)nc(-c2ncc3c(N(C)CC4CN(C(=O)/C=C/c5nc(C(C)C)no5)C4)nc(OC[C@@]45CCCN4C[C@H](F)C5)nc3c2F)c1C` [Example 85] had a pIC50 of 6.30 to 7.00.
To `Cc1ccc(N)nc1-c1ncc2c(N(C)[C@@H]3CCN(C(=O)/C=C/c4nc(C(C)C)no4)C3)nc(OC[C@@]34CCCN3C[C@H](F)C4)nc2c1F` [Example 86] belongs 7.00 to 8.00.
To `Cc1nsc(/C=C/C(=O)N2CC[C@@H](N(C)c3nc(OC[C@@]45CCCN4C[C@H](F)C5)nc4c3C[C@H](C)[C@@H](c3nc(N)cc(C)c3C(F)(F)F)C4)C2)n1` [Example 88, (E)-1-((R)-3-(((6S,7S)-7-(6-amino-4-methyl-3-(trifluoromethyl)pyridin-2-yl)-2-(((2R,7aS)-2-fluorotetrahydro-1H-pyrrolizin-7a(5H)-yl)methoxy)-6-methyl-5,6,7,8-tetrahydroquinazolin-4-yl)(methyl)amino)pyrrolidin-1-yl)-3-(3-methyl-1,2,4-thiadiazol-5-yl)prop-2-en-1-one] belongs not above 6.30; to `Cc1cc(N)nc([C@@H]2Cc3nc(OC[C@@]45CCCN4C[C@H](F)C5)nc(N(C)[C@@H]4CCN(C(=O)/C=C/c5nc(C(C)(C)O)no5)C4)c3C[C@H]2C)c1C(F)(F)F` [Example 89, (E)-1-((R)-3-(((6R,7R)-7-(6-amino-4-methyl-3-(trifluoromethyl)pyridin-2-yl)-2-(((2R,7aS)-2-fluorotetrahydro-1H-pyrrolizin-7a(5H)-yl)methoxy)-6-methyl-5,6,7,8-tetrahydroquinazolin-4-yl)(methyl)amino)pyrrolidin-1-yl)-3-(3-(2-hydroxypropan-2-yl)-1,2,4-oxadiazol-5-yl)prop-2-en-1-one], more than 8.00.
To `CN1CC[C@@H]1/C=C/C(=O)N1CC[C@@H](N(C)c2nc(OC[C@@]34CCCN3C[C@H](F)C4)nc3c(F)c(-c4nc(N)cc5cccc(F)c45)ncc23)C1` [Example 90] belongs more than 8.00.
Molecule `CN(C)CC#CC(=O)N1CC[C@@H](N(C)c2nc(OC[C@@]34CCCN3C[C@H](F)C4)nc3c(F)c(-c4nc(N)cc5cccc(Cl)c45)ncc23)C1` [Example 91] showed a pIC50 of 7.00 to 8.00.
As for `CN(c1nc(OC[C@@]23CCCN2C[C@H](F)C3)nc2c(F)c(-c3nc(N)cc4cccc(F)c34)ncc12)[C@@H]1CCN(C(=O)/C=C/c2nc(C(C)(F)F)no2)C1` [Example 92], the pIC50 is more than 8.00.
To `CN(c1nc(OC[C@@]23CCCN2C[C@H](F)C3)nc2c(F)c(-c3nc(N)cc4cccc(Cl)c34)ncc12)[C@@H]1CCN(C(=O)/C=C/c2nc(C(C)(C)O)no2)C1` [Example 93] belongs more than 8.00; to `Cc1cc(N)nc([C@H]2Cc3nc(OC[C@@]45CCCN4C[C@H](F)C5)nc(N(C)[C@@H]4CCN(C(=O)/C=C/c5nc(C(C)(C)O)no5)C4)c3C[C@@H]2C)c1C(F)(F)F` [Example 94, (E)-1-((R)-3-(((6S,7S)-7-(6-amino-4-methyl-3-(trifluoromethyl)pyridin-2-yl)-2-(((2R,7aS)-2-fluorotetrahydro-1H-pyrrolizin-7a(5H)-yl)methoxy)-6-methyl-5,6,7,8-tetrahydroquinazolin-4-yl)(methyl)amino)pyrrolidin-1-yl)-3-(3-(2-hydroxypropan-2-yl)-1,2,4-oxadiazol-5-yl)prop-2-en-1-one], not above 6.30; to `Cc1noc(/C=C/C(=O)N2CC[C@@H](N(C)c3nc(OC[C@@]45CCCN4C[C@H](F)C5)nc4c3CCN(c3nc(N)cc(C)c3C(F)(F)F)C4)C2)n1` [Example 95, (E)-1-((R)-3-((7-(6-amino-4-methyl-3-(trifluoromethyl)pyridin-2-yl)-2-(((2R,7aS)-2-fluorotetrahydro-1H-pyrrolizin-7a(5H)-yl)methoxy)-5,6,7,8-tetrahydropyrido[3,4-d]pyrimidin-4-yl)(methyl)amino)pyrrolidin-1-yl)-3-(3-methyl-1,2,4-oxadiazol-5-yl)prop-2-en-1-one], not above 6.30.
